# Assay results reported in US20240156825A1, “USE OF SELECTIVE VEGFR2 AND FGFR1 INHIBITORS” (Fountain Therapeutics Inc., priority 2022, published 2024).
# Where two headings read alike, the source gives them in different places.
# Columns and labels:
# FGFR1 = FGFR1 (Homo sapiens, UniProt P11362); conditions: relative IC50: reported IC50 toward FGFR1 divided by next lowest reported IC50 to any gene target
# VEGFR2 [1] = target: T1, VEGFR2 (Homo sapiens, UniProt P35968); conditions: relative IC50: reported IC50 toward VEGFR2 divided by next lowest reported IC50 to any gene target
# T1 sequence (P35968 20-1356, species assumed): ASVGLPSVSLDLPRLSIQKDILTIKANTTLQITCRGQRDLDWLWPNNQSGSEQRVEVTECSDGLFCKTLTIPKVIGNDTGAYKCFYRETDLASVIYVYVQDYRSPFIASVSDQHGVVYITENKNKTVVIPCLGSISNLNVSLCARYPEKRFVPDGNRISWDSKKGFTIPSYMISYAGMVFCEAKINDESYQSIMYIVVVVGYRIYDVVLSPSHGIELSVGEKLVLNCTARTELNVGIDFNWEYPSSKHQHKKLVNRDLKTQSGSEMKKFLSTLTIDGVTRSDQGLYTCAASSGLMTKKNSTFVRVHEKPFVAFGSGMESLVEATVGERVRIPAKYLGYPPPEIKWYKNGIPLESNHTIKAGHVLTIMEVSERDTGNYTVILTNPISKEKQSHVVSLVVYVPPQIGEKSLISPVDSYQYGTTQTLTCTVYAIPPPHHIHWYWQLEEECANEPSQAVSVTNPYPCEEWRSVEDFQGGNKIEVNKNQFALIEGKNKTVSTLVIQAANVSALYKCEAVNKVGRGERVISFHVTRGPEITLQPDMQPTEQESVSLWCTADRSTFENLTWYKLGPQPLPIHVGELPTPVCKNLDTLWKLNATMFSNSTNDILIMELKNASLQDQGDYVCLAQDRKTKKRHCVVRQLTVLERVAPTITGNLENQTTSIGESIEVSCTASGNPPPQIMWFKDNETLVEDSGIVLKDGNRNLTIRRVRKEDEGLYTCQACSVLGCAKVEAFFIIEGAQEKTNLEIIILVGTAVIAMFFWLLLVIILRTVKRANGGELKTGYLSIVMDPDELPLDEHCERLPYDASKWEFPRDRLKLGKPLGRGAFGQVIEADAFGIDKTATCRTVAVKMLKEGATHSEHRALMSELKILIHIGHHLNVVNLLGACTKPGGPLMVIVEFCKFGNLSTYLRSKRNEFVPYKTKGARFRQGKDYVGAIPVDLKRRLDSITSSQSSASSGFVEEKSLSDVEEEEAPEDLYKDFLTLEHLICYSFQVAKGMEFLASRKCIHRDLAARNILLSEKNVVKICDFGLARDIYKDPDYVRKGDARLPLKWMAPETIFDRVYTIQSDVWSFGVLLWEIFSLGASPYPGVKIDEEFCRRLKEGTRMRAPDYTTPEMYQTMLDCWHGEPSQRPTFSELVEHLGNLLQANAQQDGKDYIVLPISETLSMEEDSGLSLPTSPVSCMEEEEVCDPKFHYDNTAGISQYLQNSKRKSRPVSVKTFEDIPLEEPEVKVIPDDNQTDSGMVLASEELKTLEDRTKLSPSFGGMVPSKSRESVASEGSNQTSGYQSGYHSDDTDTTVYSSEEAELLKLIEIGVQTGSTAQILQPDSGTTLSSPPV
# VEGFR2 and FGFR1 = test: Selection of compounds that selectively inhibit both VEGFR2 and FGFR1 (average relative IC50); format: biochemical
# any gene target = conditions: cited from earlier work
# VEGFR2 [2] = target: T1, VEGFR2; conditions: reported IC50 to VEGFR2; Table 3, selective inhibitors of VEGFR2; read-out: VEGFR2 IC50_μM; cited from earlier work
# [3] = average of VEGFR2 and FGFR1 relative IC50
# [4] = lowest reported IC50 to any gene target, read-out: min IC50
# [5] = lowest reported IC50 to any gene target, read-out: Min IC50_μM
# [6] = next lowest IC50 value to any gene target, Table 3, read-out: Min IC50_μM
# FGFR1, sequence (P11362 22-822, species assumed): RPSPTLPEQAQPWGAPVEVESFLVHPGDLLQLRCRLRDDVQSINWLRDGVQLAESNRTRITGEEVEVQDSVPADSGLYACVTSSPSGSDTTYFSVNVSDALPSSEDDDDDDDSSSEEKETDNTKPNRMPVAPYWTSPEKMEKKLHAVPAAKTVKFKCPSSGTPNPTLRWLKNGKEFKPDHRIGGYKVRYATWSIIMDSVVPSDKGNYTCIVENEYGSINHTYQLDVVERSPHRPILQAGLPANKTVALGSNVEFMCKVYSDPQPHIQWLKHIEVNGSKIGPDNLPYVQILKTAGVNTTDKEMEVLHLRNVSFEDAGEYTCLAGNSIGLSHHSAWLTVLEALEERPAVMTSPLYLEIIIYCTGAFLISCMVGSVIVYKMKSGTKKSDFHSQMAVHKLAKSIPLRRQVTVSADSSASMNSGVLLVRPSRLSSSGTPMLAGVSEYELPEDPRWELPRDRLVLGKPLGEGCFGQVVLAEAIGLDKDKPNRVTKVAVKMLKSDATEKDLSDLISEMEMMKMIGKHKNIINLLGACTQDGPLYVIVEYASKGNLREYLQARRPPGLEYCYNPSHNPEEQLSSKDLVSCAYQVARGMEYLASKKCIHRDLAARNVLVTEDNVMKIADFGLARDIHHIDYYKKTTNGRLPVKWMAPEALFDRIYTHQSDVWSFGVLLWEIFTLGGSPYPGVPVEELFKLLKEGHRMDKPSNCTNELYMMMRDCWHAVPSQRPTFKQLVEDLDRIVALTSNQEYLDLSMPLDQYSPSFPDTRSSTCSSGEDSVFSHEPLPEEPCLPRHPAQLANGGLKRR
"FGFR1, rIC50 (FGFR1)","VEGFR2, rIC50 (VEGFR2 [1])",Compound,avg rIC50 (VEGFR2 and FGFR1; [3]),IC50 (any gene target; [4]) [nM],other results
1.9,1.1,Chembl4573547 [compound 155563388],1.5,150,–
–,–,"CCNC(=O)Nc1nc2nc(NCCCCN(CC)CC)ncc2cc1-c1cc(OC)cc(OC)c1 [compound 5330168, Pyrido[2,3-d]pyrimidine 104, reference compound]",3.4,–,–
–,–,"COc1cc(OC)cc(-c2cc3cnc(NCCCCN4CCN(C)CC4)cc3nc2NC(=O)NC(C)(C)C)c1 [compound 5330130, reference compound]",4.3,–,IC50 (any gene target; [5]): 0.4 nM
–,–,"COc1cc(OC)cc(-c2cc3cnc(NCCCCCO)cc3nc2NC(=O)NC(C)(C)C)c1 [compound 5330159, 1,6-Naphthyridine 77, reference compound]",1.5,–,–
1.2,1.0,"CONC(=O)c1cc(Nc2ncnn3cc(-c4nnc(C(F)F)o4)c(C(C)C)c23)c(F)cc1F [compound 10073832, 5-[6-(5-Difluoromethyl-[1,3,4]oxadiazol-2-yl)-5-isopropyl-pyrrolo[2,1-f][1,2,4]triazin-4-ylamino]-2,4-difluoro-N-methoxy-benzamide]",1.1,–,–
1.7,4.3,"COC(=O)Nc1ccc(-c2c(OC3CCN(C)CC3)nc3c(-c4ccc(OC)c(OC)c4)cnn3c2N)cc1 [compound 156010414, Methyl N-[4-[7-amino-3-(3,4-dimethoxyphenyl)-5-(1-methylpiperidin-4-yl)oxypyrazolo[1,5-a]pyrimidin-6-yl]phenyl]carbamate]",3.0,6,–
–,–,"COc1cc(OC)cc(-c2cc3cnc(NCCCCCN4CCN(C)CC4)cc3nc2NC(=O)NC(C)(C)C)c1 [compound 5330135, 1,6-Naphthyridine 25, reference compound]",1.8,3,IC50 (any gene target; [5]): 3 nM
–,–,"COc1cc(OC)cc(-c2cc3cnc(NCCCO)nc3nc2NC(=O)NC(C)(C)C)c1 [compound 5330169, Pyrido[2,3-d]pyrimidine 105, reference compound]",2.3,–,–
–,1.0,"CONC(=O)c1cc(Nc2ncnn3cc(-c4nc(C)no4)c(C(C)C)c23)c(F)cc1F [compound 11419379, 2,4-Difluoro-5-[5-isopropyl-6-(3-methyl-[1,2,4]oxadiazol-5-yl)-pyrrolo[2,1-f][1,2,4]triazin-4-ylamino]-N-methoxy-benzamide, reference compound]",–,7,IC50 (VEGFR2 [2]): 6.8 nM; IC50 (any gene target; [6]): 6.8 nM
5.0,6.1,"COC(=O)c1ccc2c(C(=Nc3ccc(CN(C)C(=O)N(C)C)cc3)c3ccccc3)c(O)[nH]c2c1 [compound 135837837, Methyl 3-[N-[4-[[dimethylcarbamoyl(methyl)amino]methyl]phenyl]-C-phenylcarbonimidoyl]-2-hydroxy-1H-indole-6-carboxylate]",5.6,10,–
8.7,1.7,Chembl4213341 [compound 138393067],5.2,37,–
–,–,"COc1cc(OC)cc(-c2cc3cnc(NCCCO)cc3nc2NC(=O)NC(C)(C)C)c1 [compound 5330157, 1,6-Naphthyridine 75, reference compound]",1.4,–,–
4.8,1.0,"CONC(=O)c1cc(Nc2ncnn3cc(-c4nnc(C(F)(F)S(C)(=O)=O)o4)c(C(C)C)c23)c(F)cc1F [compound 11432911, 5-{6-[5-(Difluoro-methanesulfonyl-methyl)-[1,3,4]oxadiazol-2-yl]-5-isopropyl-pyrrolo[2,1-f][1,2,4]triazin-4-ylamino}-2,4-difluoro-N-methoxy-benzamide]",2.9,–,–
1.2,2.4,Chembl4449189 [compound 155520650],1.8,110,–
–,1.0,"CONC(=O)c1cc(Nc2ncnn3cc(-c4ncc(C)o4)c(C(C)C)c23)c(F)cc1F [compound 10388612, 2,4-Difluoro-5-[5-isopropyl-6-(5-methyl-oxazol-2-yl)-pyrrolo[2,1-f][1,2,4]triazin-4-ylamino]-N-methoxy-benzamide, reference compound]",–,1,IC50 (VEGFR2 [2]): 1.1 nM; IC50 (any gene target; [6]): 1.1 nM
2.0,1.6,"Fc1ccc2c(-c3nc4cc(N5CCC(N6CCCCC6)CC5)ccc4[nH]3)n[nH]c2c1 [compound 135458467, 2-(6-Fluoro-1H-indazol-3-yl)-5-(4-(piperidin-1-yl)piperidin-1-yl)-1H-benzo[d]imidazole]",1.8,16,–
–,–,"CNC(=O)c1cc(F)cc(N(CCNC(C)C)c2ccc3ncc(-c4cnn(C)c4)nc3c2)c1 [compound 68209105, reference compound]",2.8,2,"IC50 (any gene target; Table 2, lowest reported IC50 to any gene target, read-out: Min IC50_μM): 3.16 nM"
–,–,"COc1cc(OC)cc(-c2cc3cnc(NCCCN4CCN(C)CC4)nc3nc2NC(=O)NC(C)(C)C)c1 [compound 5330167, Pyrido[2,3-d]pyrimidine 103, reference compound]",2.3,–,–
–,–,"COc1cc(OC)cc(-c2cc3cnc(NCCCN4CCN(C)CC4)cc3nc2NC(=O)NC(C)(C)C)c1 [compound 5330127, 1,6-Naphthyridine 17, reference compound]",3.0,–,–
–,–,"COc1cc(OC)cc(-c2cc3cnc(NCCCCN4CCOCC4)cc3nc2NC(=O)NC(C)(C)C)c1 [compound 5330129, 1,6-Naphthyridine 19, reference compound]",1.5,–,–
–,–,"CCN(CC)CCCNc1cc2nc(NC(=O)NC(C)(C)C)c(-c3cc(OC)cc(OC)c3)cc2cn1 [compound 5330128, 1,6-Naphthyridine 18, reference compound]",4.3,–,–
–,–,"CCNC(=O)Nc1nc2nc(NCCCN3CCN(C)CC3)ncc2cc1-c1cc(OC)cc(OC)c1 [compound 5330166, Pyrido[2,3-d]pyrimidine 102, reference compound]",2.6,–,–
2.4,–,"CN(C)CCCc1cccc(Nc2ncc3c(n2)-c2ccc(Cl)cc2NC(=S)C3)c1 [compound 56945277, 9-Chloro-2-[3-[3-(dimethylamino)propyl]anilino]-5,7-dihydropyrimido[5,4-d][1]benzazepine-6-thione]",–,–,–
–,–,"CCN1CCC(Nc2ccc3c(c2)/C(=C(\c2cccc(F)c2)c2nc(C)c[nH]2)C(=O)N3)CC1 [compound 67163677, XL999; XL-999; XL 999, reference compound]",2.0,2,–
–,–,"COc1cc(OC)cc(-c2cc3cnc(NCCCN4CCOCC4)cc3nc2NC(=O)NC(C)(C)C)c1 [compound 5329004, 1,6-Naphthyridine deriv. 20, reference compound]",5.0,–,–
–,1.0,"CONC(=O)c1cc(Nc2ncnn3cc(-c4nnc(C5CC5)o4)c(C(C)C)c23)c(F)cc1F [compound 11465545, 5-[6-(5-Cyclopropyl-[1,3,4]oxadiazol-2-yl)-5-isopropyl-pyrrolo[2,1-f][1,2,4]triazin-4-ylamino]-2,4-difluoro-N-methoxy-benzamide, reference compound]",–,4,IC50 (VEGFR2 [2]): 3.6 nM; IC50 (any gene target; [6]): 3.6 nM
–,1.6,"COC(=O)c1ccc2c(c1)NC(=O)/C2=C(\Nc1ccc(N(C)C(=O)CN2CCN(C)CC2)cc1)c1ccccc1 [compound 135476717, Nintedanib esylate]",–,13,avg rIC50 (VEGFR2 and FGFR1): 3.5

Compound,"FGFR1, rIC50 (FGFR1)","VEGFR2, rIC50 (VEGFR2 [1])",avg rIC50 (VEGFR2 and FGFR1; [3]),IC50 (any gene target; [4]) [nM],other results
"CCS(=O)(=O)c1ccc2c(c1)C(=Cc1[nH]c3c(c1CN1CCOCC1)CCCC3)C(=O)N2 [compound 44299203, 3-[3-(Morpholinomethyl)-4,5,6,7-tetrahydro-1H-indole-2-ylmethylene]-5-(ethylsulfonyl)-2,3-dihydro-1H-indole-2-one]",5.7,1.4,3.6,70,–
"COC(=O)c1ccc2c(c1)NC(=O)/C2=C(\Nc1ccc(CN2CCCCC2)cc1)c1ccccc1 [compound 135476706, Methyl (3Z)-2-oxo-3-[phenyl-[4-(piperidin-1-ylmethyl)anilino]methylidene]-1H-indole-6-carboxylate]",–,1.1,–,–,avg rIC50 (VEGFR2 and FGFR1): 1.7; IC50 (any gene target; read-out: min IC50): 32 nM
"Oc1ccc(C[C@@]2(O)COc3c(ccc(O)c3O)[C@H]2O)cc1O [compound 24949852, Epihematoxylol]",–,5.8,–,–,avg rIC50 (VEGFR2 and FGFR1): 3.7
"Oc1cc2c(cc1O)C1c3ccc(O)c(O)c3OCC1(O)C2 (stereo not drawn) [compound 442514, Haematoxylin]",–,9.5,–,–,avg rIC50 (VEGFR2 and FGFR1): 5.5
"COc1ccc(N2Cc3cnc(Nc4ccc(F)cc4)nc3N([C@@H]3CC[C@@H](O)C3)C2=O)cc1 [compound 11396738, 7-(4-Fluoroanilino)-1-[(1R,3R)-3-hydroxycyclopentyl]-3-(4-methoxyphenyl)-4H-pyrimido[4,5-d]pyrimidin-2-one, reference compound]",–,0.6,–,–,avg rIC50 (VEGFR2 and FGFR1): 1.2; IC50 (any gene target; read-out: Min IC50_μM): 83 nM; IC50 (any gene target; read-out: min IC50): 83 nM
"O=C1c2ccc(O)c(O)c2OC[C@]1(O)Cc1ccc(O)c(O)c1 [compound 44578561, Hematoxylone]",3.4,7.2,5.3,–,–
